How the values were obtained:
[1] = tested on: TLR9; test: CpGDNA-stimulated cytokine production by human monocytes; conditions: co-incubation
Description: (§1) Human PBMC were isolated from leukopaks using Histopaque (Sigma, St. Louis, Mo.). Monocytes were isolated using the Monocyte Isolation Kit II (positive selection for CD3, CD7, CD16, CD19, CD56, CD123, and glycophorin A, MiltenyiBiotec) with Macs LS separation columns. Remaining cells were >90% monocytes by anti-CD14 staining and forward- and side-light scatter analysis using FACScan (Becton-Dickinson, Elmhust, Ill.).
(§2) Purified monocytes were stimulated with LPS (1 μg) or purified proteins F or Glycoprotein (3 μg; kindly provided by V. Randolph, Wyeth Lederle, N.Y.). All rRSV variants were grown in Hep-2 cells and Vero cells as described^29,30, and used at 10^5 pfu multiplicity of infection (MOI)=1] for stimulations. Lysate of Hep-2 cells and Vero cells were used as control stimuli. UV-inactivation was performed as described elsewhere19^5 and lack of virus replication confirmed in cell culture. […] An additional peptide encoding the conserved 13 amino acid region upstream of the GCRR (164-176)^3 was also used in add-back experiments. […] The GCRR and control peptides included biotin-SGSG at the amino termini. The anti-CX3CR1 antibody was kindly provided by P. Murphy, NIAID, NIH and used as described^18. […] Cytokines were measured in supernatant fluids 18 hours after stimulation by immunoassay following manufacturer's instructions (Biosource Europe S. A, Belgium).

[2] = tested on: murine alveolar macrophages; test: Cytokine production by murine alveolar macrophages incubated with purified proteins and recombinant viruses; format: cell-based; conditions: macrophages from naive mice
Description: Alveolar macrophages were obtained by bronchoalveolar lavage (BAL) followed by magentic bead depletion (Militenyi Biotec, Germany). Macrophages were incubated with brefeldin A for six hours, fixed with commercially available fixation and permeabilization reagents, CYTOFIX/CYTOPERM (Becton Dickinson, Elmhust, Ill.), and stained using phycoerythrin (PE)-conjugated anti-IL-6 antibody (Becton Dickinson). Data was analyzed using side and forward scatter plots and FACScan (Becton Dickinson).

[3] = tested on: NF-κB; test: NF-κB nuclear translocation immunoassay in human monocytes; format: cell-based; conditions: 60 min; purified protein or live virus stimulation
Description: Human monocytes were stimulated with purified RSV F and/or Glycoprotein (1 μg each) or indicated viruses for 60 minutes. After stimulation nuclear extracts were obtained using a hypotonic lysis buffer (10 mM HEPES (pH 7.9), 1.5 mM MgCl2, 10 mM KCl, 0.5 mM DTT, 0.1% Triton X-100 and protease inhibitors) and an extraction buffer (20 mM HEPES (pH 7.9), 1.5 mM MgCl2, 0.42 M NaCl, 0.5 mM DTT, 0.2 mM EDTA, 1.0% Igepal CA-630, 25% (v/v) glycerol and protease inhibitors). NF-κB subunits p50 and p65 were detected by a modified immunoassay using a double stranded biotinylated oligonucleotide containing the consensus sequence for NF-κB binding (5′-GGGACTTTCC-3′) [SEQ ID NO:______] (Chemicon International, Germany).

[4] = tested on: RSV; conditions: Glycoprotein added to F protein during immunization; cited from earlier work
[5] = tested on: purified human monocytes; test: Monocyte cytokine production upon exposure to RSV and recombinant RSV viruses
Description: as §1, §2

[6] = tested on: purified human monocytes; test: F protein-mediated cytokine production by purified human monocytes; conditions: for effect on F-induced IL-6 production: added to F-treated monocytes
Description: as §1
(§3) Purified monocytes were stimulated with LPS (1 μg) or purified proteins F or Glycoprotein (3 μg; kindly provided by V. Randolph, Wyeth Lederle, N.Y.). All rRSV variants were grown in Hep-2 cells and Vero cells as described^29,30, and used at 10^5 pfu multiplicity of infection (MOI)=1] for stimulations. Lysate of Hep-2 cells and Vero cells were used as control stimuli. UV-inactivation was performed as described elsewhere19^5 and lack of virus replication confirmed in cell culture. […] An additional peptide encoding the conserved 13 amino acid region upstream of the GCRR (164-176)^3 was also used in add-back experiments. […] The GCRR and control peptides included biotin-SGSG at the amino termini. The anti-CX3CR1 antibody was kindly provided by P. Murphy, NIAID, NIH and used as described^18. For supplemental experiments, we used peptidoglycan (PGN; Fluka, Sigma) at 10 μg and CpGDNA (GTCGTT; HyCult Biotechnology) at 1 mM. Cytokines were measured in supernatant fluids 18 hours after stimulation by immunoassay following manufacturer's instructions (Biosource Europe S. A, Belgium).

[7] = tested on: TLR2; test: PGN-stimulated cytokine production by human monocytes; conditions: co-incubation
Description: as §1, §2

[8] = tested on: TLR4; test: Endotoxin (LPS)-mediated cytokine production by human monocytes; conditions: for effect on LPS-induced cytokine production (IL-6, IL-1β): added to LPS-treated monocytes
Description: as §1, §3

Glycoprotein: purified RSV attachment Glycoprotein from subgroup A (A2 strain)
cytokine production elicited by TLR9 agonist CpGDNA [1]: inhibited
cytokine production in murine alveolar macrophages [2]: modulating the innate responses elicited by both purified F and RSV
NF-κB nuclear translocation [3]: decreased
decrease in production of interferon-γ upon RSV challenge vs immunization with F alone [4]: up to 70 fold
IL-6 response of mG-infected cells after add-back to culture media ([5]; added to mG-infected monocytes): restored to levels similar to those elicited by RSV
decrease in IL-6 production compared to monocytes incubated with F alone ([6]; F + Glycoprotein, P<0.01): approximately 1.5 log
effect on F-induced IL-1β or IL-10 in supernatant fluids ([6]; not shown): inhibitory effect similar to that observed for Glycoprotein on F-induced IL-6 production
IL-6 production by monocytes incubated with purified protein alone ([6]; supernatant fluids, 18 hours, immunoassay): low
cytokine production elicited by TLR2 agonist PGN [7]: inhibited

GlycoproteinA peptide (residues 273-288): control peptide within the Glycoprotein mucin-like domain [reference compound]
effect on F-induced IL-6 production [6]: inhibitory effect was not observed

HFEVFNFVPSSISSNNPTSWAISKRI [GSRR, reference compound]
effect on LPS-induced cytokine production (IL-6, IL-1β) [8]: no effect

YFARGPGIHIRKR [HIV V3 loop control peptide, reference compound]
effect on LPS-induced cytokine production (IL-6, IL-1β) [8]: no effect
effect on F-induced IL-6 production [6]: inhibitory effect was not observed

G^164-176: Glycoprotein peptide encompassing amino acids 164-176, conserved 13 amino acid segment upstream of the GCRR
modulation of IL-6 production by ΔG ([5]; peptide added with ΔG): failed to modulate IL-6 production

bovine serum albumin [reference compound]
effect on F-induced IL-6 production [6]: no effect

HFEVFNFVPCSICSNNPTCWAICKRI [GCRR peptide]
effect on IL-10 production of monocytes incubated with LPS [8]: affected production of IL-10
effect on LPS-induced cytokine production (IL-6, IL-1β) [8]: dose-dependent inhibition of cytokine production
effect on F-induced IL-6 production [6]: dose-dependent inhibition

Source: US20080025997A1, “Cysteine-rich region of respiratory syncytial virus and methods of use therefor” (priority 2004, published 2008)
